Usually mortality stands for the percentage killed.

A value given as a limit tells only on which side of the number the result lay.

These results are taken from patent US6437184B1, “Oxime compounds, their use, and intermediates for their production” (Sumitomo Chemical Company, Limited, priority 1997, dated 2002).

For one experiment, the system named is Musca domestica. The experiment is described as follows: Insecticidal test against Musca domestica. Type of experiment: in vivo. The following applies: 24 h, 500 ppm water dilution, 0.7 ml on filter paper with sucrose, female adults, after 1 day, read-out: mortality. Here is the method:
In the bottom of a polyethylene cup having a diameter of 5.5 cm was placed a piece of filter paper having the same size. A 200-fold water dilution (500 ppm) of a test compound formulation obtained according to Formulation Example 1 was added dropwise at a volume of 0.7 ml on the filter paper, and about 30 mg of sucrose as a diet was uniformly placed thereon. Ten female adults of houseflies (Musca domestica) were set free in the cup, and the cup was kept covered. After 1 day, the survival of the adults was determined to determine the mortality.

The subject of a further experiment is Cydia pomonella. The experiment is described as follows: Insecticidal test against Cydia pomonella. The class given is in vivo. The following applies: 168 h, 100 ppm water dilution, 0.2 ml on surface of artificial diet, eggs just before hatching, after 7 days. Here is the method:
A water dilution (100 ppm) of a test compound formulation obtained according to Formulation Example 1 was added dropwise at a volume of 0.2 ml and spread over the surface of an artificial diet having a weight of 3 g, which had been prepared in a 30 ml polyethylene cup. After air drying, placed in the cup was a piece of wax paper (about 2.5 cm square) having about 20 eggs which had been laid by Cydia pomonella and were just before hatching. Four pieces of such wax paper were used for each treatment. After 7 days, the mortality of the larvae was determined.

As for `CCCCON=Cc1ccc(COc2c(Cl)cc(OCC=C(Cl)Cl)cc2Cl)cc1` [(376), 4-((2,6-dichloro-4-(3,3-dichloro-2-propenyloxy)phenoxy)methyl)benzaldehyde O-butyloxime], the mortality at 500 µg/mL in the experiment with Musca domestica was no less than 80%. In the experiment on Cydia pomonella, `CON=Cc1ccc(CCCOc2c(Cl)cc(OCC=C(Cl)Cl)cc2Cl)cc1` [(365), 4-(3-(2,6-dichloro-4-(3,3-dichloro-2-propenyloxy)phenoxy)propyl)benzaldehyde O-methyloxime] displayed a mortality at 100 µg/mL of no less than 80%.

For `CC(COCCCCCOc1c(Cl)cc(OCC=C(Cl)Cl)cc1Cl)=NOCc1ccccc1` [(175), 5-(2,6-dichloro-4-(3,3-dichloro-2-propenyloxy)phenoxy)pentyloxyacetone O-benzyloxime], the mortality at 500 µg/mL in the experiment with Musca domestica is no less than 80%. In turn, `CC(=NOC(C)(C)C)c1ccc(OCCCOc2c(Cl)cc(OCC=C(Cl)Cl)cc2Cl)cc1` [(294), 4′-(3-(2,6-dichloro-4-(3,3-dichloro-2-propenyloxy)phenoxy)propyloxy)acetophenone O-tert-butyloxime] yielded a mortality at 100 µg/mL with Cydia pomonella of no less than 80%. Consider `CC=NOCCCCCOc1c(Cl)cc(OCC=C(Cl)Cl)cc1Cl` [(541), acetaldehyde O-(5-(2,6-dichloro-4-(3,3-dichloro-2-propenyloxy)phenoxy)pentyl)oxime], for which the mortality at 500 µg/mL with Musca domestica was no less than 80%.

In the experiment on Cydia pomonella, `ClC(Cl)=CCOc1cc(Cl)c(OCCCCCON=C2CCSCC2)c(Cl)c1` [(572), tetrahydrothiopyran-4-one O-(5-(2,6-dichloro-4-(3,3-dichloro-2-propenyloxy)phenoxy)pentyl)oxime] gave a mortality at 100 µg/mL of no less than 80%. For the compound `CCON=CCOCCCCCOc1c(Cl)cc(OCC=C(Cl)Cl)cc1Cl` [(159), 5-(2,6-dichloro-4-(3,3-dichloro-2-propenyloxy)phenoxy)pentyloxyacetaldehyde O-ethyloxime], the mortality at 500 µg/mL in the experiment with Musca domestica was no less than 80%. As to `ClC(Cl)=CCOc1cc(Cl)c(OCCCCC=NOCC(Cl)(Cl)Cl)c(Cl)c1` [(170), 5-(2,6-dichloro-4-(3,3-dichloro-2-propenyloxy)phenoxy)pentanal O-(2,2,2-trichloroethyl)oxime], the mortality at 500 µg/mL with Musca domestica is no less than 80%. On to `CC(=NOCCCCOc1c(Cl)cc(OCC=C(Cl)Cl)cc1Cl)c1ccccn1` [(689), methyl 2-pyridyl ketone O-(4-(2,6-dichloro-4-(3,3-dichloro-2-propenyloxy)phenoxy)butyl)oxime], for which, in the experiment on Musca domestica, the mortality at 500 µg/mL is no less than 80%. On the same count and under the same terms, in the case of `CCON=CCCCOc1c(Cl)cc(OCC=C(Cl)Cl)cc1Cl` [(28), 4-(2,6-dichloro-4-(3,3-dichloro-2-propenyloxy)phenoxy)butanal O-ethyloxime] it was no less than 80%; in that of `CC(C)ON=CCOCCCCCOc1c(Cl)cc(OCC=C(Cl)Cl)cc1Cl` [(153), 5-(2,6-dichloro-4-(3,3-dichloro-2-propenyloxy)phenoxy)pentyloxyacetaldehyde O-isopropyloxime], no less than 80%; in that of `CCCCCC=NOCCCCCCOc1c(Cl)cc(OCC=C(Cl)Cl)cc1Cl` [(551), hexanal O-(6-(2,6-dichloro-4-(3,3-dichloro-2-propenyloxy)phenoxy)hexyl)oxime], no less than 80%. As for `CON=Cc1ccc(OCCCOc2c(Cl)cc(OCC=C(Cl)Cl)cc2Cl)cc1` [(305), 4-(3-(2,6-dichloro-4-(3,3-dichloro-2-propenyloxy)phenoxy)propyloxy)benzaldehyde O-methyloxime], the mortality at 500 µg/mL with Musca domestica is no less than 80%. Turning to `CON=CCCCOc1c(Cl)cc(OCC=C(Cl)Cl)cc1Cl` [(29), 4-(2,6-dichloro-4-(3,3-dichloro-2-propenyloxy)phenoxy)butanal O-methyloxime], the mortality at 500 µg/mL with Musca domestica was no less than 80%.

With `CON=CCOCCCCCOc1c(Cl)cc(OCC=C(Cl)Cl)cc1Cl` [(158), 5-(2,6-dichloro-4-(3,3-dichloro-2-propenyloxy)phenoxy)pentyloxyacetaldehyde O-methyloxime], the mortality at 500 µg/mL with Musca domestica is no less than 80%. With `C=CCON=CCOCCCCOc1c(Cl)cc(OCC=C(Cl)Cl)cc1Cl` [(4), 4-(2,6-dichloro-4-(3,3-dichloro-2-propenyloxy)phenoxy)butyloxyacetaldehyde O-(2-propenyl)oxime], the mortality at 500 µg/mL with Musca domestica is no less than 80%.

In the case of `CC(C)=NOCCCCCOc1c(Cl)cc(OCC=C(Cl)Cl)cc1Cl` [(560), acetone O-(5-(2,6-dichloro-4-(3,3-dichloro-2-propenyloxy)phenoxy)pentyl)oxime], the mortality at 500 µg/mL in the experiment on Musca domestica is no less than 80%. Regarding `C=CCON=Cc1cccc(COc2c(Cl)cc(OCC=C(Cl)Cl)cc2Cl)c1` [(330), 3-(2,6-dichloro-4-(3,3-dichloro-2-propenyloxy)phenoxymethyl)benzaldehyde O-allyl oxime], in the experiment with Musca domestica, the mortality at 500 µg/mL was no less than 80%. Same read-out and setting: in the case of `CCCCOCC=NOCCCCCOc1c(Cl)cc(OCC=C(Cl)Cl)cc1Cl` [(565), n-butyloxyacetaldehyde O-(5-(2,6-dichloro-4-(3,3-dichloro-2-propenyloxy)phenoxy)pentyl)oxime] it was no less than 80%.

On to `CCON=C(C)COCCCCCOc1c(Cl)cc(OCC=C(Cl)Cl)cc1Cl` [(176), 5-(2,6-dichloro-4-(3,3-dichloro-2-propenyloxy)phenoxy)pentyloxyacetone O-ethyloxime], for which, in the experiment on Musca domestica, the mortality at 500 µg/mL was no less than 80%. As for `CCON=Cc1ccc(OCCOc2c(Cl)cc(OCC=C(Cl)Cl)cc2Cl)cc1` [(287), 4-(2-(2,6-dichloro-4-(3,3-dichloro-2-propenyloxy)phenoxy)-ethoxy)benzaldehyde O-ethyloxime], in the experiment with Musca domestica, the mortality at 500 µg/mL is no less than 80%.

As to `ClC(Cl)=CCOc1cc(Cl)c(OCCCCCON=C2CCCCC2)c(Cl)c1` [(566), cyclohexanone O-(5-(2,6-dichloro-4-(3,3-dichloro-2-propenyloxy)phenoxy)pentyl)oxime], the mortality at 500 µg/mL in the experiment with Musca domestica is no less than 80%. As for `COc1ccc(CON=CCCCCOc2c(Cl)cc(OCC=C(Cl)Cl)cc2Cl)cc1` [(22), 5-(2,6-dichloro-4-(3,3-dichloro-2-propenyloxy)phenoxy)pentanal O-(4-methoxybenzyl)oxime], in the experiment on Musca domestica, the mortality at 500 µg/mL is no less than 80%.

On to `CCON=CCOCCCCOc1c(Cl)cc(OCC=C(Cl)Cl)cc1Cl` [(1), 4-(2,6-dichloro-4-(3,3-dichloro-2-propenyloxy)phenoxy)butyloxyacetaldehyde O-ethyloxime], for which the mortality at 500 µg/mL with Musca domestica was no less than 80%. Take `CC(C)CON=CCOCCCCCOc1c(Cl)cc(OCC=C(Cl)Cl)cc1Cl` [(155), 5-(2,6-dichloro-4-(3,3-dichloro-2-propenyloxy)phenoxy)pentyloxyacetaldehyde O-isobutyloxime]: the mortality at 500 µg/mL in the experiment with Musca domestica was no less than 80%. Still for that read-out and setting: in the case of `C=CCON=CCCCCOc1c(Cl)cc(OCC=C(Cl)Cl)cc1Cl` [(19), 5-(2,6-dichloro-4-(3,3-dichloro-2-propenyloxy)phenoxy)pentanal O-(2-propenyl)oxime] it was no less than 80%; in that of `CCCON=CCCCCOc1c(Cl)cc(OCC=C(Cl)Cl)cc1Cl` [(18), 5-(2,6-dichloro-4-(3,3-dichloro-2-propenyloxy)phenoxy)pentanal O-n-propyloxime], no less than 80%. As to `CON=CCOCCCCOc1c(Cl)cc(OCC=C(Cl)Cl)cc1Cl` [(7), 4-(2,6-dichloro-4-(3,3-dichloro-2-propenyloxy)phenoxy)butyloxyacetaldehyde O-methyloxime], the mortality at 500 µg/mL with Musca domestica was no less than 80%.
